Measurements: US9617242B2, “Histone demethylase inhibitors” (priority 2012, dated 2017)
Structures can show the parent of a compound that is named as a salt. Where two headings read alike, the source gives them in different places.

How the values were obtained:
Jarid1A = Jarid1A (Homo sapiens (Human), UniProt P29375); assay: Jarid1A in vitro enzyme inhibition assay (TR-FRET); format: biochemical
Jarid1B = Jarid1B (Homo sapiens (Human), UniProt Q9UGL1); assay: Jarid1B in vitro enzyme inhibition assay (TR-FRET); format: biochemical
KDM5A/B = assay: In vitro cell-based assay: tri-methyl H3K4 immuno-blotting in ZR-75-1 breast cancer cells
Description: This quantitative immuno-blotting assay measures the amount tri-methylated histone H3 at amino acid Lysine number 4, a specific substrate […] of the direct enzymatic activity of the histone demethylases KDM5A and KDM5B from extracts of the ZR-75-1 breast cancer cell line.
This assay is a fluorometric immunoassay for the quantification of tri-methyl H3K4 extracted from cells treated with test compound and is used as a measure of the cellular inhibition of KDM5A/B.
Extracts were prepared containing all of the cellular histone material using detergent based lysis and sonication methods. These lysates were subsequently normalized for total protein content using a colorimetric bicinchonic acid assay (MicroBCA Pierce/Thermo Scientific). Normalized cell extracts were then subjected to typical immuno-blotting procedures using NuPage reagents (Life Technologies). Electrophoretically separated histones were then transferred and immobilized using polyvinylidene difluoride membrane (Immobilon-FL Millipore). The amount of tri-methylated lysine 4 of histone H3 was detected using an antibody specific to the tri-methylated state (Cell Signaling Technologies) and quantified on an infrared imager using a densitometry software package (Odyssey CLx, Image Studio, Li-Cor). This background subtracted densitometry value was reported as a ration of the GAPDH amount for that sample and then calculated as a percent of the DMSO treated sample. The software package XL-fit (IDBS) was then used to calculate a relative IC50 value for the dilution series of a given test compound according to the equation: fit=(D+((Vmax*(x^n))/((x^n)+(Km^n)))).

[1] = 72 hours, read-out: Cellular IC50
[2] = read-out: Cellular IC50, 72 hours

Chain of Jarid1B (Q9UGL1 2-751): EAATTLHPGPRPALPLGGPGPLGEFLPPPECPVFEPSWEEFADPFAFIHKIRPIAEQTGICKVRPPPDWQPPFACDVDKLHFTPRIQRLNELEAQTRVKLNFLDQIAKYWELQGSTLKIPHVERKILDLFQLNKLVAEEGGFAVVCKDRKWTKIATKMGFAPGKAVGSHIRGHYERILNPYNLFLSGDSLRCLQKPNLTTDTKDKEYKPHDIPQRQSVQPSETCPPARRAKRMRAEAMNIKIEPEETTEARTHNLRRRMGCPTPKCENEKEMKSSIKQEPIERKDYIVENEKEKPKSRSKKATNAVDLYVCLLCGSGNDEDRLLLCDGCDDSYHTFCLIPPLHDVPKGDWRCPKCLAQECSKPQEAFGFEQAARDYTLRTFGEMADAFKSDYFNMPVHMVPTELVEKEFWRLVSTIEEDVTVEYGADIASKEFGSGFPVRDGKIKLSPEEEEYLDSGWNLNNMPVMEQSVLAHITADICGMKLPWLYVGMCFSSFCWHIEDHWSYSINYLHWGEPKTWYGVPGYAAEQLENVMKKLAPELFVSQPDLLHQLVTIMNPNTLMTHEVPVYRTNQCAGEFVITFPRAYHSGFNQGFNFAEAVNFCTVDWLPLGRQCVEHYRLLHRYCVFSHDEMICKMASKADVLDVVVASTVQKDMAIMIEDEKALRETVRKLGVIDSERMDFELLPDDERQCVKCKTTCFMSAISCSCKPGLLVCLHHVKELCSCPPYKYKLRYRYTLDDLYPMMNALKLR
Chain of Jarid1A (P29375 1-1090): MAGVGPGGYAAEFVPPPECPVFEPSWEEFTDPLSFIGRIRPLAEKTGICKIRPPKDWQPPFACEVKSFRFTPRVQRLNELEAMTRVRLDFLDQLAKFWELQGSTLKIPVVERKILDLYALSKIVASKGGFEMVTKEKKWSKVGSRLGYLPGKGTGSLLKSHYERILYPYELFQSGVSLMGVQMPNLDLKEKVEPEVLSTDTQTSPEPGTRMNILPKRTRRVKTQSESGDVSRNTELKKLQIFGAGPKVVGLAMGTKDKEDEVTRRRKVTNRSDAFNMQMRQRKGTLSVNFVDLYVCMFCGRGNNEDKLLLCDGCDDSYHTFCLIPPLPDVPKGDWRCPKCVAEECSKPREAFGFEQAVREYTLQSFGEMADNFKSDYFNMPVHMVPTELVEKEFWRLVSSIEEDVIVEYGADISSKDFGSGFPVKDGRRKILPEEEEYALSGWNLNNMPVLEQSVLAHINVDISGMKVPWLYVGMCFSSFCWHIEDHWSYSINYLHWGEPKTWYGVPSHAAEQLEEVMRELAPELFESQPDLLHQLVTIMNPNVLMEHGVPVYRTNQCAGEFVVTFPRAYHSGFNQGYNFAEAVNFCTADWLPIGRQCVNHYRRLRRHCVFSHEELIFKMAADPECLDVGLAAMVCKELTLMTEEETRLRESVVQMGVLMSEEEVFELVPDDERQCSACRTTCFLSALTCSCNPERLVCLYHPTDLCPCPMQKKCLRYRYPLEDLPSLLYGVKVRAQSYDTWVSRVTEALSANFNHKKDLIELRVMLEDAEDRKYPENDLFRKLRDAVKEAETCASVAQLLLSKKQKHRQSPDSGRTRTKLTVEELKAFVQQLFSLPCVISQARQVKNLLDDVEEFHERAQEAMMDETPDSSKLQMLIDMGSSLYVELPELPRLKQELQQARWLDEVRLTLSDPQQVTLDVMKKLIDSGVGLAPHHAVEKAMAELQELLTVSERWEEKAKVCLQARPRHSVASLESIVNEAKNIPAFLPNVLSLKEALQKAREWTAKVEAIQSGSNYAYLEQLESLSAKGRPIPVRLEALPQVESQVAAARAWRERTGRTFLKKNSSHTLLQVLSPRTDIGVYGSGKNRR

Row | IC50 (Jarid1A) [nM] | IC50 (Jarid1B) [nM] | IC50 (KDM5A/B; [1]) [nM] | Structure (SMILES) | IC50 (KDM5A/B; [2]) [nM]
1 | < 100 | < 100 |  | Cc1ccc2c(c1)c(Nc1cnccc1C(=O)O)nn2CCC(F)(F)F [Example 39, 3-{[5-methyl-1-(3,3,3-trifluoropropyl)-1H-indazol-3-yl]amino}pyridine-4-carboxylic acid] | 
2 |  |  | 100 to 1000 | Cc1ccc2c(c1)c(Nc1cnccc1C(=O)O)nn2C [Example 12, 3-[(1,5-dimethyl-1H-indazol-3-yl)amino]pyridine-4-carboxylic acid] | 
3 | < 100 | < 100 | 100 to 1000 | CCCn1nc(Nc2cnccc2C(=O)O)c2cc(Cl)ccc21 [Example 33, 3-[(5-chloro-1-propyl-1H-indazol-3-yl)amino]pyridine-4-carboxylic acid] | 
4 | < 100 | < 100 | 100 to 1000 | O=C(O)c1ccncc1Nc1nn(CCC(F)(F)F)c2ccc(F)cc12 [Example 32, 3-{[5-fluoro-1-(3,3,3-trifluoropropyl)-1H-indazol-3-yl]amino}pyridine-4-carboxylic acid] | 
5 | < 100 | < 100 |  | N#CNC(=O)c1ccncc1Nc1nn(CCN2CCC(F)(F)C2)c2ccc(F)cc12 [Example 72, N-cyano-3-({1-[2-(3,3-difluoropyrrolidin-1yl)ethyl]-5-fluoro-1H-indazol-3-yl}amino)pyridine-4-carboxamide] | 
6 | < 100 | < 100 | 100 to 1000 | O=C(O)c1ccncc1Nc1nn(CCC(F)(F)F)c2ccc(Cl)cc12 [Example 35, 3-{[5-chloro-1-(3,3,3-trifluoropropyl)-1H-indazol-3-yl]amino}pyridine-4-carboxylic acid] | 
7 | < 100 | < 100 | 100 to 1000 | O=C(O)c1ccncc1Nc1nn(CC2CCC2)c2ccc(F)cc12 [Example 28, 3-{[1-(cyclobutylmethyl)-5-fluoro-1H-indazol-3-yl]amino}pyridine-4-carboxylic acid] | 
8 |  |  | 1000 to 10000 | O=C(O)c1ccncc1Nc1nn([C@@H]2CCNC2)c2ccc(F)cc12 [Example 61, 3-({5-fluoro-1-[(3R)-pyrrolidin-3-yl]-1H-indazol-3-yl}amino)pyridine-4-carboxylic] | 
9 | < 100 | < 100 | 1000 to 10000 | O=C(O)c1ccncc1Nc1nn(CC2CC2)c2ccc(F)cc12 [Example 16, 3-{[1-(cyclopropylmethyl)-5-fluoro-1H-indazol-3-yl]amino}pyridine-4-carboxylic acid] | 
10 | < 100 | < 100 | 1000 to 10000 | CCCCCn1nc(Nc2cnccc2C(=O)O)c2cc(F)ccc21 [Example 18, 3-[(5-fluoro-1-pentyl-1H-indazol-3-yl)amino]pyridine-4-carboxylic acid] | 
11 | < 100 | < 100 | 1000 to 10000 | O=C(O)c1ccncc1Nc1nn(CC2CCCC2)c2ccc(F)cc12 [Example 30, 3-{[1-(cyclopentylmethyl)-5-fluoro-1H-indazol-3-yl]amino}pyridine-4-carboxylic acid] | 
12 | < 100 | < 100 | 100 to 1000 | Cn1nc(Nc2cnccc2C(=O)O)c2cc(Cl)ccc21 [Example 4, 3-[(5-chloro-1-methyl-1H-indazol-3-yl)amino]pyridine-4-carboxylic acid] | 
13 | < 100 | < 100 |  | CCn1nc(Nc2cnccc2C(=O)O)c2cc(C)ccc21 [Example 36, 3-[(1-ethyl-5-methyl-1H-indazol-3-yl)amino]pyridine-4-carboxylic acid] | 
14 |  |  | 1000 to 10000 | Cn1nc(Nc2cnccc2C(=O)O)c2ccc(F)cc21 [Example 6, 3-[(6-fluoro-1-methyl-1H-indazol-3-yl)amino]pyridine-4-carboxylic acid] | 
15 | < 100 | < 100 | 1000 to 10000 | O=C(O)c1ccncc1Nc1nn(CC2CCCO2)c2ccc(F)cc12 (centres unmarked) [Example 21, 3-{[5-fluoro-1-(tetrahydrofuran-2-ylmethyl)-1H-indazol-3-yl]amino}pyridine-4-carboxylic acid] | 
16 | < 100 | < 100 | 1000 to 10000 | Cc1ccc2c(Nc3cnccc3C(=O)O)nn(C)c2c1 [Example 5, 3-[(1,6-dimethyl-1H-indazol-3-yl)amino]pyridine-4-carboxylic acid] | 

Row | IC50 (Jarid1A) [nM] | IC50 (Jarid1B) [nM] | IC50 (KDM5A/B; [1]) [nM] | Structure (SMILES) | IC50 (KDM5A/B; [2]) [nM]
17 | < 100 | < 100 |  | N#CNC(=O)c1ccncc1Nc1nn(CCN2CCCC2)c2ccc(Cl)cc12 [Example 79, N-cyano-3-({5-chloro-1-[2-(pyrrolidin-1-yl)ethyl]-1H-indazol-3-yl}amino)pyridine-4-carboxamide] | 
18 | < 100 | < 100 | 100 to 1000 | CCCn1nc(Nc2cnccc2C(=O)O)c2ccccc21 [Example 9, 3-[(1-propyl-1H-indazol-3-yl)amino]pyridine-4-carboxylic acid] | 
19 | < 100 | < 100 |  | N#CNC(=O)c1ccncc1Nc1nn(CCN2CCC(F)(F)CC2)c2ccc(F)cc12 [Example 74, N-cyano-3-({1-[2-(4,4-difluoropiperidin-1yl)ethyl]-5-fluoro-1H-indazol-3-yl}amino)pyridine-4-carboxamide] | 
20 | < 100 | < 100 | 1000 to 10000 | O=C(O)c1ccncc1Nc1nn(CC(F)(F)F)c2ccc(F)cc12 [Example 23, 3-{[5-fluoro-1-(2,2,2-trifluoroethyl)-1H-indazol-3-yl]amino}pyridine-4-carboxylic acid] | 
21 |  |  |  | CNCCCCCn1nc(Nc2cnccc2C(=O)O)c2cc(F)ccc21 [Example 46, 3-({5-fluoro-1-[5-(methylamino)pentyl]-1H-indazol-3-yl}amino)pyridine-4-carboxylic acid, trifluoroacetic acid salt] | > 10000
22 | < 100 | < 100 | 1000 to 10000 | O=C(O)c1ccncc1Nc1cn(CCC(F)(F)F)c2ccc(Cl)cc12 [Example 59, 3-{[5-chloro-1-(3,3,3-trifluoropropyl)-1H-indol-3-yl]amino}pyridine-4-carboxylic acid] | 
23 | < 100 | < 100 | > 10000 | O=C(O)c1ccncc1Nc1nn(CCc2ccccc2)c2ccc(F)cc12 [Example 19, 3-{[5-fluoro-1-(2-phenethyl)-1H-indazol-3-yl]amino}pyridine-4-carboxylic acid] | 
24 | < 100 | < 100 |  | CCCn1nc(Nc2cnccc2C(=O)O)c2cc(C)ccc21 [Example 38, 3-[(5-methyl-1-propyl-1H-indazol-3-yl)amino]pyridine-4-carboxylic acid] | 
25 | < 100 | < 100 |  | N#CNC(=O)c1ccncc1Nc1nn([C@H]2CCOC2)c2ccc(F)cc12 [Example 70, N-cyano-3-({5-fluoro-1-[(3S)-tetrahydrofuran-3-yl]-1H-indazol-3-yl}amino)pyridine-4-carboxamide] | 
26 | < 100 | < 100 |  | CC(C)Cn1nc(Nc2cnccc2C(=O)NC#N)c2cc(F)ccc21 [Example 75, N-cyano-3-{[5-fluoro-1-(2-methylpropyl)-1H-indazol-3-yl]amino}pyridine-4-carboxamide] | 
27 | < 100 | < 100 | 100 to 1000 | Cc1ccc2c(c1)c(Nc1cnccc1C(=O)O)nn2CC1CC1 [Example 37, 3-{[1-(cyclopropylmethyl)-5-methyl-1H-indazol-3-yl]amino}pyridine-4-carboxylic acid] | 
28 |  |  |  | CN(C)CC#CCn1nc(Nc2cnccc2C(=O)O)c2cc(F)ccc21 [Example 49, 3-({1-[4-(dimethylamino)but-2-yn-1-yl]-5-fluoro-1H-indazol-3-yl}amino)pyridine-4-carboxylic acid, trifluoroacetic acid salt] | > 10000
29 | < 100 | < 100 |  | O=C(O)c1ccncc1Nc1nn(C2CCCOC2)c2ccc(F)cc12 (centres unmarked) [Example 63, 3-{[5-fluoro-1-(tetrahydro-2H-pyran-3-yl)-1H-indazol-3-yl]amino}pyridine-4-carboxylic acid] | 
30 | < 100 | < 100 |  | O=C(O)c1ccncc1Nc1nn(C2CCOCC2)c2ccc(F)cc12 [Example 62, 3-{[5-fluoro-1-(tetrahydro-2H-pyran-4-yl)-1H-indazol-3-yl]amino}pyridine-4-carboxylic acid] | 
31 | < 100 | < 100 |  | CN(C)CCCCn1nc(Nc2cnccc2C(=O)NC#N)c2cc(F)ccc21 [Example 76, N-cyano-3-({1-[4-(dimethylamino)butyl]-5-fluoro-1H-indazol-3-yl}amino)pyridine-4-carboxamide] | 
32 |  |  | 1000 to 10000 | O=C(O)c1ccncc1Nc1nn([C@H]2CCNC2)c2ccc(F)cc12 [Example 60, 3-({5-fluoro-1-[(3S)-pyrrolidin-3-yl]-1H-indazol-3-yl}amino)pyridine-4-carboxylic acid] | 

Row | Structure (SMILES) | IC50 (Jarid1A) [nM] | IC50 (Jarid1B) [nM] | IC50 (KDM5A/B; [1]) [nM] | IC50 (KDM5A/B; [2]) [nM]
33 | O=C(O)c1ccncc1Nc1cn(C2CCOC2)c2ccc(F)cc12 (centres unmarked) [Example 68, 3-{[5-fluoro-1-(tetrahydrofuran-3-yl)-1H-indol-3-yl]amino}pyridine-4-carboxylic acid] | < 100 | < 100 |  | 
34 | CCCn1cc(Nc2cnccc2C(=O)O)c2cc(F)ccc21 [Example 57, 3-[(5-fluoro-1-propyl-1H-indol-3-yl)amino]pyridine-4-carboxylic acid] | < 100 | < 100 |  | 
